# Laboratory results taken from patent US7632848B1, “Medical treatment of muscles by exposure to anesthetic drugs” (priority 2007, dated 2009).
# Experiments:
# skeletal muscle fibers = conditions: in vivo; cited from earlier work
# [1] = test system: eye muscle (lateral rectus muscle); format: in vivo, human
# Description: In one embodiment, an eye muscle is selected for treatment. For an eye that is esotropic (turned inward or crossed), the physician will want to strengthen the lateral rectus muscle, which acts to pull the eye outward into better alignment. The surface of the eye is anesthetized with eye drops. A syringe is filled with up to 5.0 cc of bupivacaine, enough to fill the muscle and reach all the muscle fibers. The concentration of the bupivacaine solution is from 0.5% to 3.0%. The volume and concentration are varied depending on the amount of strengthening effect required. The syringe is attached to an injection needle insulated on its shaft. Therefore, the muscle electrical activity is picked up only with the exposed tip of the needle. The needle is attached to a wire leading to an electromyographic (EMG) recorder. A second wire leads to a ground attached to the skin of the patient's body. The eye is moved to a position at which the lateral rectus muscle to be treated is activated electrically as well as physically contracted. As the tip of the needle approaches the muscle area, the electrical activity is picked up and amplified by the EMG recorder as sound. The sound gets louder as the needle tip gets closer to and finally within the muscle. The needle is advanced behind the eye to the end of the muscle, about 3 cm, keeping the needle within the muscle, guided by the amplitude of the recorded sound. This is important, as the drug will anesthetize the nerves and the muscle with injection of the first few drops, thereafter leaving no guide as to position of the needle. The drug solution is injected starting at this deepest point, with continued injection of solution as the needle is withdrawn. In order to get the maximum effect, all the fibers of the muscle must be exposed to the drug. A smaller volume and concentration are applied when a sub-maximum effect is wanted. […] (Scott, A. B., Alexander, D. E., Miller, J. M., 2007, Bupivacaine injection of eye muscles to treat strabismus. Br J. Opthalmol. 91 (2), 146-148) In one case of eye muscle injection, I marked the solution with a contrast agent to show the exact location of the injected drug. […] All the same, the muscle became larger and stronger. This teaches that exposure of the fibers can also be effected by injecting around the muscle to bathe it. All the muscle fibers must be exposed to the drug to provide the maximal effect. Reducing exposure of the muscle fibers to the drug by reducing the volume of solution injected or by using a lower concentration of drug can be expected to provide a lesser effect. […]
# [2] = test system: extensor digitorum longus muscle; conditions: rat hind limb, sufficient concentration and volume; cited from earlier work
compound,measurement,setting,value
CCCCN1CCCCC1C(=O)Nc1c(C)cccc1C (stereo not drawn) [bupivacaine],toxicity to muscle fibers,skeletal muscle fibers,irreversible breakdown of the muscle fibers
same,duration of muscle inactivity from the anesthetic effect,"[1]; eye muscle injection, up to 5.0 cc, 0.5% to 3.0%",inactive for a day
same,eye position and movement after recovery,"[1]; eye muscle injection, as the muscle enlarges and strengthens",typically improve
same,recovery from the myotoxic effect,[1]; in vivo,gradually recovers from the myotoxic effect of the drug over the next week
same,effect on muscle size and strength,[1]; muscle fibers exposed to adequate concentration and volume of drug,enlarge and become stronger
same,muscle size after injection,[2],enlargement of the muscle beyond its original size
